One test relates to HT-29 cells. The test can be described thus: WST-1 cell viability assay, HT-29. The format is cell-based, human. Particulars: n.i. = no inhibition observed; for IC50: Homo sapiens, HT-29, 48 h. As to the method: Cell viability was analyzed with the WST-1 assay based on the cleavage of the stable tetrazolium salt WST-1 by the mitochondrial reductase system. Cells were seeded in the appropriate densities in a clear 96-well plate and settled overnight at 37°C in 5% CO2. The next day, the cells were treated with NFA or the substances of interest (≤0.1% dimethyl sulfoxide [DMSO]) and incubated for 24 or 48 h at 37°C in 5% CO2. Cell viability was analyzed by adding 10 µl WST-1 solution (Roche, Basel, Switzerland) and subsequently incubating the cells at 37°C for another 30–40 min. Absorbance was measured at 450 nm with a control wavelength at 620 nm using a plate reader.
Besides targeting the NF-κB pathway, the anti-tumorigenic effects of NFA can be observed by a reduction of colorectal cancer cell viability. […] Again, the cytotoxic effects of NFA were determined in HCT-116 and HT-29 colorectal cancer cells in the present study. […] HCT-116 cells were treated with increasing concentrations of NFA differing in chain length and Michael acceptor position for 24 h, and cell viability was determined using the WST-1 assay. Due to their prolonged cell division rate and their lack of sensitivity towards NFA ([Kühn et al., 2018]), HT-29 cells were treated for 48 h to gain improved NFA activity.
(Tetrazolium dyes change colour on reduction, which living cells bring about.)

The next test addresses T1, 5-LO (Homo sapiens, UniProt P09917).
T1 construct: endogenous in cells; host or cells: human PMNL from buffy coats
T1 sequence (P09917 1-674): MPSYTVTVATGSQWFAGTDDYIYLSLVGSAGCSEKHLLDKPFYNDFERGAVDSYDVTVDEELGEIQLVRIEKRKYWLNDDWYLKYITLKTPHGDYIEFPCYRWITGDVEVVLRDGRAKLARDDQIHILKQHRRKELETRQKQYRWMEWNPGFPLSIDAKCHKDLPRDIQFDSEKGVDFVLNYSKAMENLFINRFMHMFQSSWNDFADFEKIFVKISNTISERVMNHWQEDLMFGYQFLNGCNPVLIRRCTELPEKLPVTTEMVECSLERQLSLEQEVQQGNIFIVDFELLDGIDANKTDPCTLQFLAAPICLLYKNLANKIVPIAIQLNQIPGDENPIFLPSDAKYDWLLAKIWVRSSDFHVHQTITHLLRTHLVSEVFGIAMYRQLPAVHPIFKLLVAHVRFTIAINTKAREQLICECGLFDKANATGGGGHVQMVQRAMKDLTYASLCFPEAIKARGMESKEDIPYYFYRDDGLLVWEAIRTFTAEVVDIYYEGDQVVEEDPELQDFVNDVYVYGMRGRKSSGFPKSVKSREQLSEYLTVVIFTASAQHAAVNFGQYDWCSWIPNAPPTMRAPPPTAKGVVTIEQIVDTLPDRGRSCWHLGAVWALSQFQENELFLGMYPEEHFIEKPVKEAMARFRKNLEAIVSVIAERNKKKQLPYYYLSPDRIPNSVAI
In words: 5-LO product formation (LTB4, 5-HETE) in intact PMNL, A23187 + 20 µM AA. The format is cell-based. The settings on record: 15 min preincubation, A23187 2.5 µM + 20 µM AA, n.i. = no inhibition observed; for PMNL (20 µM AA) 5-HETE IC50 / PMNL (20 µM AA) LTB4 IC50: intact PMNL. On the procedure:
Buffy coats from different donors of different blood types were commercially obtained from DRK Blutspendedienst Baden-Württemberg Institute Frankfurt. Donors have given their written consent. […] Following separation, the supernatant was transferred very gently to new 50-ml tubes containing lymphocyte separation medium (LSM) and centrifuged for 10 min at 800 ×g at RT with the centrifuge brake turned off. Afterwards, the supernatant was decanted carefully to discard the platelets and monocytes. The PMNL were washed with 1× PBS before the residual erythrocytes were lysed in two cycles: the cell pellet was resuspended with 10 ml H2O and vortexed for 45 s, and lysis was stopped with 40 ml 1 × PBS. After 10-min centrifugation at 200 ×g at RT, the cycle was repeated once. The supernatant was aspirated, the cell pellet resuspended in 5 ml PBS/glucose and initially separated PMNL preparations with different blood types were finally pooled to gain a sufficient number of cells. […] The enzyme was diluted in PBS/EDTA/ATP, transferred into 5-ml glass tubes, and stored on ice. […] The reaction was stopped by placing the glass tubes on ice. The supernatants were transferred to 1.5 ml reaction tubes and stored at −80°C before LC-MS (liquid chromatography and mass spectrometry) analysis of LTB4 and HETEs as described in 2.6 at the Institute of Pharmacology, Goethe University, University Hospital, Germany. The lipid mediators LTB4, hydroxyeicosatetraenoic acids, 5(S)-HETE, 12(S)-HETE, 15(S)-HETE and 20-HETE were analyzed using liquid chromatography tandem-mass spectroscopy (LC-MS/MS). The LC-MS/MS system consisted of a 5500 QTrap mass spectrometer (Sciex, Darmstadt, Germany), operating in negative ESI mode, an Agilent 1200 HPLC system (Agilent, Waldbronn, Germany) and an HTC Pal autosampler (Chromtech, Idstein, Germany). Sample extraction of LTB4 and HETEs were performed using liquid-liquid extraction: 200 µl of the sample were gently mixed with 20 µl of methanol and 20 µl of internal standard solution and extracted twice with 600 µl ethyl acetate. […] Working solutions of all analytes were prepared in methanol containing 0.1% BHT. The calibration standards were prepared by further dilution of the working standards. […] The residues were reconstituted in 50 µl of methanol:water:BHT (50:50:10^−4, v/v/v) prior to injection into the LC-MS/MS system. Chromatographic separation was achieved using a Gemini NX C18 column (150 mm × 2 mm ID, 5 µm, Phenomenex, Aschaffenburg, Germany) with a precolumn of the same material. A linear gradient was employed at a flow rate of 0.5 ml/min and a total run time of 17.5 min. Mobile phases were A water:ammonia (100:0.05, v/v) and B acetonitrile:ammonia (100:0.05, v/v). […] All data were acquired using Analyst software v1.6.2 and quantitation was performed by MultiQuant software v3.0 (both Sciex, Darmstadt, Germany) using the internal standard method (isotope-dilution mass spectrometry). Calibration curves were calculated by linear regression with 1/x.

Setting [1] is: PMNL (20 µM AA) 5-HETE IC50, intact PMNL.
[2] abbreviates: PMNL (20 µM AA) LTB4 IC50, intact PMNL.

From article PMC8637440, “Structural Modifications Yield Novel Insights Into the Intriguing Pharmacodynamic Potential of Anti-inflammatory Nitro-Fatty Acids” (Frontiers in Pharmacology, 2021) come the findings set out here.

Several values for one entry are separate records, joined by “and”; a condition that tells them apart may be missing. Identical values can stand only once.

Usually IC50 stands for the midpoint of a concentration-inhibition curve.

`CCC=C(CCCCCCCC(=O)O)[N+](=O)[O-]` [12.9.9, 9-nitro-dodec-9-enoic acid] showed an IC50 with HT-29 cells of about 31.5 µM. In addition, on 5-LO, the “PMNL (20 µM AA) 5-HETE IC50” value is on record as “n.i” and the “PMNL (20 µM AA) LTB4 IC50” value is “n.i”.

Compound `CCCCC=C(CCCCCCCC(=O)O)[N+](=O)[O-]` [14.9.9, 9-nitro-tetradec-9-enoic acid] registered an IC50 in the test with HT-29 cells of 27.4 ± 1 µM. For the same compound, at 5-LO, the “PMNL (20 µM AA) 5-HETE IC50” value was “n.i” and the “PMNL (20 µM AA) LTB4 IC50” value is reported as “n.i”.

Regarding `CCCCCCC=C(CCCCCCCC(=O)O)[N+](=O)[O-]` [16.9.9, 9-nitro-hexadec-9-enoic acid], the IC50 in the test on HT-29 cells was 12.7 ± 1.1 µM; at 5-LO (setting [1]), 10.8 ± 1.1 µM; on 5-LO (setting [2]), 12 ± 1.1 µM.

For `CCCCCCCCCCCCCC=C(CCC(=O)O)[N+](=O)[O-]` [18.4.4, 4-nitro-octadec-4-enoic acid], the IC50 in the test on HT-29 cells stood at 23.9 ± 1.1 µM; on 5-LO (setting [1]), 9.2 ± 1.2 µM; on 5-LO (setting [2]), 10.6 ± 1.1 µM.

Take `CCCCCCCCCCCCC=C(CCCC(=O)O)[N+](=O)[O-]` [18.5.5, 5-nitro-octadec-5-enoic acid]: the IC50 was 18.5 ± 1.1 µM with HT-29 cells, 7.5 ± 1.1 µM at 5-LO (setting [1]) and 9 ± 1.1 µM on 5-LO (setting [2]).

As to `CCCCCCCCCCCC=C(CCCCC(=O)O)[N+](=O)[O-]` [18.6.6, 6-nitro-octadec-6-enoic acid], the IC50 amounted to 11.1 ± 1.1 µM in the test on HT-29 cells, 9.1 ± 1.2 µM at 5-LO (setting [1]) and 7.7 ± 1.1 µM on 5-LO (setting [2]).

Take `CCCCCCCCCCCC(=CCCCCC(=O)O)[N+](=O)[O-]` [18.6.7, 7-nitro-octadec-6-enoic acid]: the IC50 in the test with HT-29 cells amounted to 13.8 ± 1.1 µM; at 5-LO (setting [1]), 11.2 ± 1.2 µM; on 5-LO (setting [2]) it was 8.3 ± 1.1 µM.

With `CCCCCCCCCCC=C(CCCCCC(=O)O)[N+](=O)[O-]` [18.7.7, 7-nitro-octadec-7-enoic acid], the IC50 with HT-29 cells stood at 4.4 ± 1.1 µM; on 5-LO (setting [1]), 4.9 ± 1.1 µM; at 5-LO (setting [2]) it was 4.3 ± 1.1 µM.

`CCCCCCCCCC=C(CCCCCCC(=O)O)[N+](=O)[O-]` [18.8.8, 8-nitro-octadec-8-enoic acid]: the figures for the IC50 in the test with HT-29 cells, on 5-LO (setting [1]) and at 5-LO (setting [2]) were 3.3 ± 1.1 µM, 6.6 ± 1.1 µM and 7.9 ± 1.1 µM, respectively.

Regarding `CCCCCCCCCC(=CCCCCCCC(=O)O)[N+](=O)[O-]` [18.8.9, 9-nitro-octadec-8-enoic acid], the results for the IC50 with HT-29 cells, on 5-LO (setting [1]) and at 5-LO (setting [2]) were 8 ± 1.1 µM, 7.7 ± 1.2 µM and 5.7 ± 1.2 µM, respectively.

As for `CCCCCCCCC=C(CCCCCCCC(=O)O)[N+](=O)[O-]` [18.9.9, 9-nitro-octadec-9-enoic acid], the IC50 in the test with HT-29 cells is 8.8 ± 1.1 µM; at 5-LO (setting [1]), 5.9 µM and 6.1 µM; on 5-LO (setting [2]) it was 4.8 ± 1.8 µM.

For `CCCCCCCCC(=CCCCCCCCC(=O)O)[N+](=O)[O-]` [18.9.10, 10-nitro-octadec-9-enoic acid], the IC50 in the test on HT-29 cells stood at 15.7 ± 1.1 µM; at 5-LO (setting [1]), 6.9 ± 1.1 µM; at 5-LO (setting [2]) it was 5 ± 1.1 µM.

`CCCCCCCC=C(CCCCCCCCC(=O)O)[N+](=O)[O-]` [18.10.10, 10-nitro-octadec-10-enoic acid]: the IC50 in the test with HT-29 cells turned out to be 13.9 ± 1.1 µM; at 5-LO (setting [1]), 6 ± 1.2 µM; on 5-LO (setting [2]), 7 ± 1.1 µM.

Consider `CCCCCCC=C(CCCCCCCCCC(=O)O)[N+](=O)[O-]` [18.11.11, 11-nitro-octadec-11-enoic acid], for which the IC50 with HT-29 cells was determined as 16.6 ± 1.1 µM; at 5-LO (setting [1]), 5.7 ± 1.1 µM; at 5-LO (setting [2]), 5.9 ± 1.1 µM.

`CCCCCCCCCCC=C(CCCCCCCC(=O)O)[N+](=O)[O-]` [20.9.9, 9-nitro-eicos-9-enoic acid]: the IC50 is 8.1 ± 1.1 µM in the test on HT-29 cells, 4.7 ± 1.1 µM on 5-LO (setting [1]) and 4.2 ± 1.1 µM on 5-LO (setting [2]).

For the compound `CCCCCCCC/C=C\CCCCCCCC(=O)O` [OA, oleic acid, reference compound], in the test with HT-29 cells, the “HT-29 (48 h) IC50” value was “failed to induce cytotoxic effects and n.i”. Besides, at 5-LO, the “PMNL (20 µM AA) 5-HETE IC50” value was “n.i” and the “PMNL (20 µM AA) LTB4 IC50” value is “n.i”.
